This note sets out measurements from PMC7695167, “Targeting the Interaction between the SH3 Domain of Grb2 and Gab2” (Cells, 2020).

The target in the assay is T1, C-SH3 Grb2 (C-terminal SH3 domain of Grb2) (Homo sapiens, UniProt P62993).
T1 construct: isolated C-terminal SH3 domain, recombinant, expressed and purified as previously reported
Nature of the assay: tryptophan fluorescence, titration of preformed C-SH3:Gab2 peptide complex. It is filed as binding. The following applies: read-out: apparent inhibition constant.

T1 sequence (P62993 159-217 limits assumed): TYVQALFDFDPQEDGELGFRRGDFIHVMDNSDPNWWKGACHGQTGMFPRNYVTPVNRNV

As for `CCOc1cc(CNCCc2ccc(OC)cc2)ccc1OCc1cccc(Cl)c1` [AN-465-J137-985, N-(4-((3-Chlorobenzyl)oxy)-3-ethoxybenzyl)-2-(4-methoxyphenyl)ethan-1-amine], the Ki was around 5 µM.
